Consider one compound from US10160785B2, “Antimicrobial peptides and their use for the treatment of topical infections” (priority 2015, dated 2018).

The test system of the test is Candida albicans (Olomouc) biofilm. As to the kind of experiment: C. albicans biofilm, remaining metabolic activity (XTT). It counts as cell-based. The gist of the method: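 Candida albicans (Olomouc) biofilms grown 48 h at 37 °C in MOPS-buffered RPMI 1640 from 1×10^6 CFU inocula, then exposed 20 h to peptide at 0.39-200 μmol.l^−1. XTT/PMS staining for 90 min, A540; remaining metabolic activity expressed as percent of untreated biofilm after blank correction.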

Where a SMILES comes first, the peptide text is derived from it.

For `CCCC[C@H](NC(=O)[C@H](CC(C)C)NC(=O)[C@H](CO)NC(=O)[C@H](CO)NC(=O)[C@H](CCCC)NC(=O)[C@@H](NC(=O)CN)[C@@H](C)CC)C(=O)N[C@@H](CCCCN)C(=O)N[C@@H](CCCCN)C(=O)N[C@@H](CC(C)C)C(=O)N[C@@H](CCCCN)C(=O)N[C@@H](CCCCN)C(=O)N[C@H](C(=O)N[C@H](C(=O)N[C@@H](C)C(=O)N[C@@H](CCCCN)C(N)=O)[C@@H](C)CC)[C@@H](C)CC` [V] (HELM PEPTIDE1{G.I.[Nle].S.S.L.[Nle].K.K.L.K.K.I.I.A.K.[am]}$$$$V2.0), the “Metabolic activity of C. albicans (%)” value turned out to be 106.4% (peptide concentration 6.25 μmol · l^−1, 20 hours); 89.5% (peptide concentration 12.5 μmol · l^−1, 20 hours); 45.0% (peptide concentration 25 μmol · l^−1, 20 hours); 6.9% (peptide concentration 50 μmol · l^−1, 20 hours); 2.4% (peptide concentration 100 μmol · l^−1, 20 hours); 0.4% (peptide concentration 200 μmol · l^−1, 20 hours).
